Patent publication US11957757B2, “Method for preparing stabilized metal ion ligand nanocomplex and compositions thereof” (AUBURN UNIVERSITY, priority 2017, dated 2024)
pIC50: −log10 of the molar value.

Legend:
[1] = test system: DU145-TXR drug-resistant prostate cancer cells; assay: MTT cytotoxicity assay, DU145-TXR cells; type: cell-based; details: for cell toxicity: equivalent concentrations, 48 hours
Procedure: Cells were cultured at 37° C. in a humidified atmosphere containing 5% CO2. […] Cytotoxicity was calculated using the following equation: Cell Viability (%)=(ATest/Acontrol)×100%. Furthermore, IC50 was calculated with SigmaPlot software based on a dose-response curve.

[2] = test system: DU145-TXR cells; assay: Intracellular ROS, H2DCFDA dye method; type: cell-based; details: 100 μM, positive control
Procedure: The generation of ROS was determined with a 2′,7′-dichlorodihydrofluorescein diacetate (H2DCFDA) dye method. Briefly, cells were seeded in a dark-walled, clear-bottomed 96-well plate with 50,000 cells per well and incubated at 37° C. overnight before study. Cells were incubated with 20 μM H2DCFDA in Hank's Buffered Salt Solution (HBSS, pH=7.4) for 30 minutes at 37° C. in the dark, and treated with different formulations.

[3] = test system: DU145-TXR cells; assay: Endoplasmic reticulum (ER) staining; details: 0.5 μM, 8 hours

## [Cl][Cu][Cl] [CuCl2, copper chloride]
[1]
  cell toxicity: did not show significant cell toxicity

## CCN(CC)C(=S)S [DDC-Na, sodium diethyldithiocarbamatetrihydrate]
[1]
  cell toxicity: did not show significant cell toxicity

## OO [H2O2]
[2]
  ROS level: increased

## CC(=O)O[C@H]1C(=O)[C@@]2(C)[C@H]([C@H](OC(=O)c3ccccc3)[C@]3(O)C[C@H](OC(=O)[C@H](O)[C@@H](NC(=O)c4ccccc4)c4ccccc4)C(C)=C1C3(C)C)[C@]1(OC(C)=O)CO[C@@H]1C[C@@H]2O [paclitaxel]
[3]
  ER structure (ER-specific dye staining): typical reticulate structure
[1]; 48 hours of treatment
  pIC50: 5.59
